Laboratory results as given in US20230061319A1, “METHODS OF TREATING TUMORS” (CoImmune, Inc., priority 2020, published 2023).

Columns and labels:
B cells = experiment: TGF-β secretion by stimulated PBMCs from mRCC patients (ELISA); settings: everolimus 10 ng/mL, 6 days, supernatant
Protocol: Frozen patient PBMC were thawed, counted, and washed in PBS. The cells were resuspended in X-VIVO 15 media (with gentamicin and phenol red; Lonza) at 2x10^6 cells/mL and incubated overnight in a 5% CO2 incubator at 37° C. The cells were counted and set up in culture at 1x10^6 cells/mL in X-VIVO 15 media. […] Everolimus (LC Laboratories) was added at 10 ng/mL to unstimulated or stimulated cultures. The cultures were incubated overnight in a 5% CO2 incubator at 37° C. for six days.
The concentration of total TGF-β1 in plasma and supernatant samples was quantified using the LEGEND MAX Total TGF-β1 ELISA Kit (Biolegend). Samples were prepared by acid treatment to activate latent TGF-β1 and then diluted 1:20 or 1:100 in assay buffer. Samples were incubated on a plate pre-coated with anti-TGF-β1 antibody for 2 hours. Anti-TGF-β1 was incubated for 1 hour, and the plate was washed and incubated with Avidin-HRP for 30 minutes. The plate was developed with TMB substrate solution and Stop solution, and was read at 450 nm and 570 nm using an ELx800 plate reader.
Thus, the impact of everolimus on B cell TGF-β production was investigated. PBMCs from mRCC patients were stimulated (“stim”) or left unstimulated (“control”) with or without everolimus addition as described in Example 1 to induce TGF-β secretion. TGF-β concentrations in the supernatant were measured after 6 days by ELISA.

MART-1 specific CTLs [1] = experiment: Priming of MART-1 specific CTLs by PME-CD40L DCs in the presence of mTOR inhibitors; type: cell-based, human; settings: in the presence of the mTOR inhibitor, 10 ng/ml to 1 ug/ml
Protocol: 300 x 10^6 peripheral blood mononuclear cells (PBMCs) were cultured in 30 mL AIM-V media (Thermo Fisher Scientific) in T150 flasks (Corning) for 2 hours to provide for the adherence of monocytes. Non-adherent cells were removed by washing the monolayers twice with cold phosphate buffered saline (PBS) (Cambrex), and the remaining monocytes were cultured in X-VIVO 15 medium (Cambrex) for 5 days, supplemented with 1000 U/mL each of granulocyte macrophage-colony stimulating factor (GM-CSF) (Bayer AG, Leukine® liquid) and IL-4 (R&D Systems). To achieve DC maturation, immature DCs were first cultured on day 5 with 10 ng/mL tumor necrosis factor alpha (TNF-α) (R&D Systems), 1000 µ/mL interferon gamma (IFN-y) (Actimmune), and 1 µg/mL prostaglandin E2 (PGE2) (Sigma). On day 6, phenotypically mature DCs were co-electroporated with RNA encoding CD40L (Argos Lot No. 101606 JSC) at a concentration of 3 ug per million DCs plus either human cytomegalovirus (CMV) pp65 or MART-1 encoding RNAs at 2 µg per million DCs (CMVpp65 RNA-Argos Lot No 071107XF, MART-1-APL RNA-Argos Lot No. 011909HC). […]
PME-CD40L DCs derived from HLA-A2-positive donors and transfected with antigen-encoding mRNAs were co-cultured with purified CD8^+ T cells. […] Induction of primary immune responses to MART-1 and memory/recall responses to CMV pp65 were measured on day 10. […]

mRCC patients = experiment: Retrospective Kaplan-Meier analysis of overall survival in the Phase 3 ADAPT trial; type: in vivo, human
CD19^+ B cells = experiment: Flow cytometry of CD38+ and LAP+ B cells in stimulated PBMCs from mRCC patients
Text: T cells were identified using APC-H7 Mouse Anti-Human CD3 antibody (clone SK7, BD Biosciences). T cell subsets were identified using Pacific Blue Mouse Anti-Human CD4 antibody (clone RPA-T4, BD Biosciences) and PerCP-Cy5.5 Mouse Anti-Human CD8 antibody (clone SK1, BD Biosciences). Activated T cells expressing the IL-2 alpha receptor were identified using Brilliant Violet 605 Mouse Anti-Human CD25 antibody (clone 2A3, BD Biosciences). The T cell costimulatory receptor that binds CD80 and CD86 was identified using PE Mouse Anti-Human CD28 antibody (clone CD28.2, BD Biosciences). B cells were identified using APC-eFluor 780 Mouse Anti-Human CD19 antibody (clone HIB19, ThermoFisher Scientific). Terminally differentiated B cells were identified using APC Mouse Anti-Human CD38 antibody. Proliferating cells were identified using Brilliant Violet Mouse Anti-Ki-67 antibody (clone B56, BD Biosciences). […] The multifunctional cytokine Human Transforming Growth Factor beta-1 was identified using PerCP-Cy5.5 Mouse anti-Human LAP (TGF-β1) antibody (clone TW4-2F8, Biolegend). 5 mL tubes containing cultured cells were centrifuged at 400 g for 5 minutes after which supernatant was decanted. Pelleted cells were washed by adding 2 mL of Stain Buffer containing fetal bovine serum and ≤0.09% sodium azide (BD Biosciences), briefly vortexed and centrifuged. Stain Buffer was decanted from tubes and pelleted samples were then surfaced stained with monoclonal antibody, briefly vortexed and incubated at room temperature for 15 minutes in the dark. Samples were then washed with 2 mL of PBS, centrifuged and resuspended in 1 mL of PBS. 2 µL of LIVE/DEAD Fixable Aqua Dead Cell dye (ThermoFisher Scientific) was added to each sample and incubated at 37° C. for 15 minutes. Samples were washed and centrifuged twice with 2 mL of Stain Buffer. Decanted and pelleted cells were vortexed and then fixed with 1 mL of diluted Transcription Factor Fix/Perm Buffer (BD Biosciences) for 15 minutes at room temperature. 1 mL of 1x Transcription Factor Perm/Wash Buffer (BD Biosciences) was added to each sample, briefly vortexed and centrifuged. Perm/Wash buffer was decanted from samples and washed again with 2 mL of Perm/Wash buffer. Perm/Wash Buffer was decanted from tubes and pelleted samples were then stained for intracellular antigens with monoclonal antibody, briefly vortexed and incubated at room temperature for 15 minutes in the dark. After incubation, samples were washed twice with Perm/Wash Buffer and resuspended in 350 µL of Stain Buffer. […]
Frozen patient PBMC were thawed, counted, and washed in PBS. […] The cells were counted and set up in culture at 1x10^6 cells/mL in X-VIVO 15 media. […]

CMV pp65 specific CTLs [2] = experiment: CMV pp65 specific recall CTL effector function (IFN-γ, TNF-α, IL-2 secretion, CD107a expression); type: cell-based, human
Protocol: (§1) PME-CD40L DCs derived from HLA-A2-positive donors and transfected with antigen-encoding mRNAs were co-cultured with purified CD8^+ T cells. All co-cultures were performed in R-10 media. CD8^+ T cells were purified using the CD8+ T Cell Negative Selection Kit II (Miltenyi Biotec) from non-adherent cells harvested from the monocyte adherence step. The CD8^+ cells were mixed with DCs at a 10:1 ratio and incubated in the presence of 0.2 µg/mL IL-2 and 10 ng/mL IL-7 (R&D Systems). DC/T cell co-cultures were re-stimulated on day 7 and supplemented with 20 units/mL IL-2 plus 10 ng/mL IL-7. Induction of primary immune responses to MART-1 and memory/recall responses to CMV pp65 were measured on day 10.
(§2) To identify antigen-specific T cell responses and the phenotype of the antigen specific cells, T cells were harvested on day 10 post-stimulation and incubated with peptide-pulsed T2 target cells at a ratio of 10:1 for 4 hour with Brefeldin A, Monensin (BD Biosciences) and CD107a PE-Cy5. […] After 4 hours of co-culture, responder T cells were stained for 10 minutes with the requisite peptide/pentamer reagent, then washed once and re-stained with CD8-Eflour605, CD45RA-FITC, and CD28-APC. Cells were then washed in PBS and stained with Aquadye (BD Biosciences) for analysis of viability. Labeled cells were then fixed and permeabilized in Fixation/Permeabilization solution (eBiosciences). Cells where then stained with IFN-γ-PECy7, TNFa-AF700 and IL-2-PerCPcy5.5 in permeabilization buffer and resuspended in FACs buffer prior to acquisition.
To assess the impact mTOR inhibition would have on CTL effector function in vitro, CMV pp65 specific CTLs were assayed for the ability to secret the cytokines IFN-y, TNF-α and IL-2, and express the degranulation marker CD107a, which serves as a surrogate marker to measure lytic activity. Data presented in FIG. 2A and FIG. 2B measures the absolute numbers of CMV […] specific CTLs that secrete IFN-y, TNF-α or IL-2, or express CD107a in response to CMV pp65 peptide pulsed target cells. The absolute numbers of CMV^+ CTLs shown have been corrected for background non-specific responses to display only the antigen specific response for each parameter.

[3] = than rapamycin (sirolimus); cited from earlier work
MART-1 specific CTLs [4] = experiment: MART-1 specific CTL effector function (IFN-γ, TNF-α, IL-2 secretion, CD107a expression); type: cell-based, human; settings: at the higher concentrations tested; compared to untreated CTLs
Protocol: as §1
as §2, with “Cells where then stained with IFN-γ-PECy7, TNFa-AF700 and IL-2-PerCPcy5.5 in permeabilization buffer and resuspended in FACs buffer prior to acquisition.” left out

CMV pp65 specific CTLs [5] = experiment: Induction of CMV pp65 specific recall CTLs by PME-CD40L DCs in the presence of mTOR inhibitors; type: cell-based, human
Protocol: 300 x 10^6 peripheral blood mononuclear cells (PBMCs) were cultured in 30 mL AIM-V media (Thermo Fisher Scientific) in T150 flasks (Corning) for 2 hours to provide for the adherence of monocytes. Non-adherent cells were removed by washing the monolayers twice with cold phosphate buffered saline (PBS) (Cambrex), and the remaining monocytes were cultured in X-VIVO 15 medium (Cambrex) for 5 days, supplemented with 1000 U/mL each of granulocyte macrophage-colony stimulating factor (GM-CSF) (Bayer AG, Leukine® liquid) and IL-4 (R&D Systems). To achieve DC maturation, immature DCs were first cultured on day 5 with 10 ng/mL tumor necrosis factor alpha (TNF-α) (R&D Systems), 1000 µ/mL interferon gamma (IFN-y) (Actimmune), and 1 µg/mL prostaglandin E2 (PGE2) (Sigma). On day 6, phenotypically mature DCs were co-electroporated with RNA encoding CD40L (Argos Lot No. 101606 JSC) at a concentration of 3 ug per million DCs plus either human cytomegalovirus (CMV) pp65 or MART-1 encoding RNAs at 2 µg per million DCs (CMVpp65 RNA-Argos Lot No 071107XF, MART-1-APL RNA-Argos Lot No. 011909HC). Generation of MART-1 RNA and CD40L RNA is described in e.g., DeBenedette et al., J. Immunol. 181(8):5296-5305 (2008).
Electroporated DCs were cultured for an additional 4 hours in X-VIVO 15 media supplemented with 800 µ/mL GM-CSF and 500 µ/mL IL-4 at 1 x 10^6 DCs/mL in low adherence 6-well plates (Costar). After 4 hr, the DCs were harvested by washing with cold PBS and prepared as a frozen formulation at 10 x 10^6 DCs/mL in 20% DMSO and 80% FBS, representing antigen electroporated Post Maturation Electroporated (PME)-CD40L DC preparations.
as §1, §2
CD8^+ cytotoxic T lymphocyte (CTL) responses were used to measure the pp65 CMV recall response induced by PME-CD40L DCs in the presence of mTOR inhibitors everolimus and temsirolimus. PME-CD40L DCs encoding CMV pp65 were used to stimulate recall CTL responses in the presence of the mTOR inhibitors under evaluation for compatibility with the CMN-001 product. The expansion of recall CTLs specific for CMV pp65 was determined on day 3 after a second weekly stimulation with PME-CD40L DCs.

[6] = than rapamycin (sirolimus); cited from earlier work; remark: listed apart in the source
[7] = 10 ng/ml, compared to DC/CTL co-cultures without mTOR inhibitor, day 3 after second weekly stimulation

CO[C@H]1C[C@@H]2CC[C@@H](C)[C@@](O)(O2)C(=O)C(=O)N2CCCC[C@H]2C(=O)O[C@H]([C@H](C)C[C@@H]2CC[C@@H](OCCO)[C@H](OC)C2)CC(=O)[C@H](C)/C=C(\C)[C@@H](O)[C@@H](OC)C(=O)[C@H](C)C[C@H](C)/C=C/C=C/C=C/1C [everolimus]
concentration of TGF-β secreted by stimulated B cells (B cells): decrease | priming of MART-1 specific CTLs by PME-CD40L DC (MART-1 specific CTLs [1]): able to prime | OS (mRCC patients; SOC arm, everolimus during follow up): 13.4 months | OS (mRCC patients; SOC arm, everolimus during treatment): 17.7 months | OS (mRCC patients; combination arm (DC therapy), everolimus during follow up phase): 25.7 months | OS (mRCC patients; combination arm (DC therapy), everolimus during treatment phase): 19.3 months | median OS (mRCC patients; everolimus during the follow up phase (n=42), combination n=22, everolimus after SOC therapy n=20): 13.4 months | median OS (mRCC patients; everolimus during the treatment phase (n=49), combination n=38, everolimus alone n=11): 17.8 months | median overall survival (OS) (mRCC patients; everolimus treated population (n=91), everolimus as 2nd line, combination n=60, everolimus alone n=31): 13.6 months | frequency of CD19+ LAP+ B cells (CD19^+ B cells; stimulated cultures with everolimus): decrease | frequency of LAP+/Ig+ CD38+ B cells (CD19^+ B cells; stimulated with everolimus, sub-gating of LAP+ B cells (3.89% without)): 0.11% | frequency of LAP+CD38+Ig- B cells (CD19^+ B cells; stimulated with everolimus, sub-gating of LAP+ B cells (4.04% without)): 2.63% | frequency of LAP+/Ig+ B cells (CD19^+ B cells; stimulated with everolimus, sub-gating of LAP+ B cells (61.5% without)): 6.14% | numbers of CMV+ CTL secreting a cytokine or expressing CD107a (CMV pp65 specific CTLs [2]; 10 ng/ml, compared to untreated CTLs): increased | increase in effector function of CMV+ CTL (CMV pp65 specific CTLs [2]; 1 µg/ml): maintained | side effects [3]: fewer | numbers of MART-1+ CTL secreting a cytokine or expressing CD107a (MART-1 specific CTLs [4]): increased | numbers of CMV pp65 specific CTLs (CMV pp65 specific CTLs [5]; [7]): increase | percentage of CMV pp65 specific CTLs (CMV pp65 specific CTLs [5]; [7]): increase | increase in absolute numbers of CMV+ CTL (CMV pp65 specific CTLs [5]; 1 µg/ml): evident | increase in percentage of CMV+ CTL (CMV pp65 specific CTLs [5]; 1 µg/ml): evident | solubility in organic solvents [6]: enhanced | stability [6]: greater
